The data set in a line: Relaxometric properties: longitudinal relaxivity r1p measurement. The class given is physicochemical. The note with it: per mM Gd; for r1p at 0.47 T 37° C., human plasma / r1p at 0.47 T 37° C., saline: 0.47 T (20 MHz); for r1p at 0.47 T 37° C., saline / r1p at 1.41 T 37° C., saline: physiologic solution; for r1p at 1.41 T 37° C., human plasma / r1p at 1.41 T 37° C., saline: 1.41 T (60 MHz). The protocol:
The relaxometric properties of some representative complex compounds according to the invention have been determined at different magnetic field strengths, e.g. including 0.47 and 1.41 T, at 37° C. and in different media (physiologic solution and human plasma) and compared with relaxivity values measured, at the same conditions, for some Gd-Complex of the market having an analogous cyclic coordination cage.
The longitudinal water proton relaxation rate (R1=1/T1) was measured at 0.47 T with a Minispec MQ-20 spectrometer (Bruker Biospin, Germany) operating at a proton Larmor frequency of 20 MHz; MR experiments at 1.41 T were performed using a Minispec MQ-60 spectrometer (Bruker Biospin, Germany) operating at a proton Larmor frequency of 60 MHz.
All test articles were used as supplied and diluted in the selected medium (physiologic solution or human plasma) by weighting the required amount of paramagnetic chelated complex to get a 5 or 10 mM starting solution.
Five different concentration samples (0.1, 0.25, 0.5, 0.75 and 1 mM) for each medium have been prepared by further dilution of the starting 5 or 10 mM solution.
Relaxivity measurements were performed at 0.47 T and 1.41 T at a preset temperature sample of 37° C., kept constant by means of a thermostatic bath connected to the sample holder of the spectrometer. The five sample solutions have been preliminary pre-heated at 37° C. in an external thermostatic bath and then left 10 minutes inside the internal bath to assure the stabilization of the temperature. Longitudinal relaxation time T1 was measured by means of a standard inversion recovery sequence, where the inversion time (TI) was varied from 10 ms to at least 5 times T1 in 15 steps. Statistical analysis (mono-exponential fitting for T1 measurement, linear fitting for the evaluation of longitudinal relaxivity) was performed by Mathematica® (Wolfram, USA). Errors on the estimated parameters were evaluated by the fitting procedure.

Turning to `O=C(O)CN1CCN(CC(=O)O)CCN(CC(O)CN(CC(O)CN2CCN(CC(=O)O)CCN(CC(=O)O)CCN(CC(=O)O)CC2)CP(=O)(O)O)CCN(CC(=O)O)CC1` (stereo not shown) [Chelate Complex 2], the “r1p at 0.47 T 37° C., human plasma” value was determined as 12.0 mM⁻¹ s⁻¹; the “r1p at 0.47 T 37° C., saline” value worked out at 9.0 mM⁻¹ s⁻¹; the “r1p at 1.41 T 37° C., human plasma” value turned out to be 11.3 mM⁻¹ s⁻¹; the “r1p at 1.41 T 37° C., saline” value turned out to be 9.3 mM⁻¹ s⁻¹.

For the compound `O=C(O)CN1CCN(CC(=O)O)CCN(CC(O)CN(CC(O)CN2CCN(CC(=O)O)CCN(CC(=O)O)CCN(CC(=O)O)CC2)CC(O)C(O)C(O)C(O)CO)CCN(CC(=O)O)CC1` (stereo not shown), the “r1p at 0.47 T 37° C., human plasma” value stood at 11.5 mM⁻¹ s⁻¹; the “r1p at 0.47 T 37° C., saline” value was 9.3 mM⁻¹ s⁻¹; the “r1p at 1.41 T 37° C., human plasma” value stood at 10.8 mM⁻¹ s⁻¹; the “r1p at 1.41 T 37° C., saline” value worked out at 9.4 mM⁻¹ s⁻¹.

Consider `O=C(O)CN1CCN(CC(=O)O)CCN(CC(O)CN(CCN(CC(=O)O)CC(O)CN2CCN(CC(=O)O)CCN(CC(=O)O)CCN(CC(=O)O)CC2)CC(=O)O)CCN(CC(=O)O)CC1` (stereo not shown), for which the “r1p at 0.47 T 37° C., human plasma” value amounted to 10.6 mM⁻¹ s⁻¹; the “r1p at 0.47 T 37° C., saline” value turned out to be 7.3 mM⁻¹ s⁻¹; the “r1p at 1.41 T 37° C., human plasma” value came out at 10.2 mM⁻¹ s⁻¹; the “r1p at 1.41 T 37° C., saline” value turned out to be 7.5 mM⁻¹ s⁻¹.

In the case of `O=C(O)CN1CCN(CC(=O)O)CCN(CC(O)CN(CC(=O)O)CC(O)CN2CCN(CC(=O)O)CCN(CC(=O)O)CCN(CC(=O)O)CC2)CCN(CC(=O)O)CC1` (stereo not shown), the “r1p at 0.47 T 37° C., human plasma” value turned out to be 9.7 mM⁻¹ s⁻¹; the “r1p at 0.47 T 37° C., saline” value is 8.3 mM⁻¹ s⁻¹; the “r1p at 1.41 T 37° C., human plasma” value was determined as 9.2 mM⁻¹ s⁻¹; the “r1p at 1.41 T 37° C., saline” value was determined as 8.5 mM⁻¹ s⁻¹.

Values taken from patent US11401262B2, “Dimeric contrast agents” (BRACCO IMAGING S.P.A., priority 2015, dated 2022).
